Reference: US9428519B2, “Acylated derivative of homoharringtonine, preparation method therefor, and application thereof” (HANGZHOU BENSHENG PHARMACEUTICAL CO., LTD., priority 2011, dated 2016)
≈ marks a conversion by molar mass, not a printed value.

Columns and labels:
[1] = tested on: RPMI8226 (multiple myeloma); assay: MTT growth inhibition of multiple myeloma cells, 72 h; format: cell-based, human; settings: Homo sapiens, RPMI-8226, MTT
Procedure: Multiple myeloma and lymphoma cell lines: RPMI8226 (multiple myeloma), purchased from Fuxiang Bio-tech Co. Ltd., Shanghai, China.
(§1) Obtaining 6000 well-growing leukemia cells and inoculating them into wells of a 96-well cell culture plate. The culture medium is the 1640 cell culture medium containing 10% fetal bovine serum. After adding the homoharringtonine derivatives of different concentrations and mixing uniformly, placing the plate in a carbon dioxide cell incubator (5% CO2) at 37° C. and incubated for 72 hours. Then the viable cell concentration is determined by the MTT method. In this experiment, the cell viability in control group (not treated with any compound) is set as 100%. On such basis, the cell viability (%) after treatment and the 50% inhibiting concentration of the compound for the leukemia cell growth at 72 hours (IC50 value of 72 hours) are calculated.

[2] = tested on: H9 (acute lymphoblastic leukemia, ALL); assay: MTT growth inhibition of leukemia cells, 72 h; format: cell-based, human; settings: Homo sapiens, MTT
Text: (§2) Leukemia cell lines: leukemia cell lines: K562/adr (drug-resistant, chronic myeloid leukemia, CML), NB4 (acute promyelocytic leukemia, AML), Kasumi-1 (acute myeloid leukemia M2 type, AML-M2), Jurkat (acute lymphoblastic leukemia, ALL), all of which are donated by Cancer Research Institute of Zhejiang University, China; and H9 (acute lymphoblastic leukemia, ALL), which is purchased from China Center for Type Culture Collection (CCTCC).
(§3) Reagents: The standard sample of homoharringtonine (HHT) is purchased from Taihua Natural Plant Pharmaceutical Co., Ltd., Shaanxi, China, the homoharringtonine derivatives of the present invention.
as §1

[3] = tested on: NB4 (acute promyelocytic leukemia, AML); assay: MTT growth inhibition of leukemia cells, 72 h; format: cell-based, human; settings: Homo sapiens, MTT
Text: as §2, §3, §1

[4] = tested on: Jurkat (acute lymphoblastic leukemia, ALL); assay: MTT growth inhibition of leukemia cells, 72 h; format: cell-based, human; settings: Homo sapiens, Jurkat
Text: as §2, §3, §1

[5] = tested on: K562/adr (drug-resistant, chronic myeloid leukemia, CML); assay: MTT growth inhibition of leukemia cells, 72 h; format: cell-based, human; settings: Homo sapiens, K562/Adr, MTT
Text: as §2, §3, §1

[6] = tested on: Kasumi-1 (acute myeloid leukemia M2 type, AML-M2); assay: MTT growth inhibition of leukemia cells, 72 h; format: cell-based, human; settings: for IC50 / IC90: Homo sapiens, Kasumi 1, MTT
Text: as §2, §3, §1

[7] = tested on: A549 (human lung cancer); assay: MTT growth inhibition of human solid tumor cells, 72 h; format: cell-based; settings: Homo sapiens, A549
Procedure: (§4) Human solid tumor cell lines: Hep-2 (laryngeal carcinoma), A549 (human lung cancer), CaES-17 (esophageal cancer cell), PC-3 (prostate cancer), CNE (nasopharyngeal carcinoma cell), and SK-OV-3 (ovarian cancer cell), all of which are purchased from China Center For Type Culture Collection; RKO (human colon adenocarcinoma cell), MGC 803 (human gastric cancer cell), MG63 (osteosarcoma) and U87 MG (malignant glioma cell), all of which are purchased from Fuxiang Bio-tech Co. Ltd., Shanghai, China; PANC-1 (pancreatic cancer), Huh7 (human liver cancer cell), Becap37 (human breast cancer cell), and Hela (human cervical cancer cell), all of which are donated by Cancer Research Institute of Zhejiang University, China.
(§5) Obtaining 4000 well-growing human solid tumor cells and inoculating them into wells of a 96-well cell culture plate. The culture medium is DMEM High Glucose cell culture medium containing 10% fetal bovine serum. The plate is placed in a carbon dioxide cell incubator (5% CO2) at 37° C. and incubated for 24 hours. After adding the homoharringtonine derivatives of different concentration and mixing uniformly, the plate is placed in a carbon dioxide cell incubator (5% CO2) at 37° C. and incubated for 72 hours. Then the viable cell concentration is determined by the MTT method and the cell viability (%) after drug treatment is calculated. In this experiment, the cell viability of control group (not treated with any compound) is set as 100%.

[8] = tested on: PC-3 (prostate cancer); assay: as above; format: cell-based; settings: Homo sapiens, MTT
Procedure: as §4, §5

[9] = tested on: MG63 (osteosarcoma); assay: as above; format: cell-based; settings: Homo sapiens, MG-63, MTT
Procedure: as §4, §5

[10] = tested on: Huh7 (human liver cancer cell); assay: as above; format: cell-based; settings: Homo sapiens, Huh-7
Procedure: as §4, §5

[11] = tested on: U87 MG (malignant glioma cell); assay: as above; format: cell-based; settings: Homo sapiens, U-87 MG
Procedure: as §4, §5

[12] = tested on: RKO (human colon adenocarcinoma cell); assay: as above; format: cell-based; settings: Homo sapiens, MTT
Procedure: as §4, §5

[13] = tested on: Hela (human cervical cancer cell); assay: as above; format: cell-based; settings: Homo sapiens, HeLa, MTT
Procedure: as §4, §5

[14] = tested on: CNE (nasopharyngeal carcinoma cell); assay: as above; format: cell-based; settings: Homo sapiens, MTT
Procedure: as §4, §5

[15] = tested on: Becap37 (human breast cancer cell); assay: as above; format: cell-based; settings: Homo sapiens
Procedure: as §4, §5

[16] = tested on: CaES-17 (esophageal cancer cell); assay: as above; format: cell-based; settings: Homo sapiens, CaEs17
Procedure: as §4, §5

[17] = tested on: Hep-2 (laryngeal carcinoma); assay: as above; format: cell-based; settings: Homo sapiens, HEp-2
Procedure: as §4, §5

[18] = tested on: MGC 803 (human gastric cancer cell); assay: as above; format: cell-based; settings: Homo sapiens, MGC-803
Procedure: as §4, §5

[19] = tested on: PANC-1 (pancreatic cancer); assay: as above; format: cell-based; settings: Homo sapiens, PANC-1, MTT
Procedure: as §4, §5

[20] = tested on: SK-OV-3 (ovarian cancer cell); assay: as above; format: cell-based; settings: Homo sapiens, SK-OV-3, MTT
Procedure: as §4, §5

COC(=O)C[C@](O)(CCCC(C)(C)OC(=O)C1CC1)C(=O)O[C@@H]1C(OC)=C[C@]23CCCN2CCc2cc4c(cc2[C@H]13)OCO4 [BS-HH-062]
IC50 [1]: 0.007 µg/mL (≈ 0.0114 µM)
IC90 [1]: 0.029 µg/mL (≈ 0.0473 µM)
IC50 [2]: 0.008 µg/mL (≈ 0.013 µM)
IC90 [2]: 0.02 µg/mL (≈ 0.0326 µM)
IC50 [3]: 0.004 µg/mL (≈ 0.00652 µM)
IC90 [3]: 0.007 µg/mL (≈ 0.0114 µM)
IC50 [4]: 0.012 µg/mL (≈ 0.0196 µM)
IC90 [4]: ≥ 16 µg/mL
IC50 [5]: 0.06 µg/mL (≈ 0.0978 µM)
IC90 [5]: 0.75 µg/mL (≈ 1.22 µM)
IC50 [6]: 0.002 µg/mL (≈ 0.00326 µM)
IC90 [6]: 0.005 µg/mL (≈ 0.00815 µM)
IC50 [7]: 0.04 µg/mL (≈ 0.0652 µM)
IC90 [7]: > 16 µg/mL
IC50 [8]: 0.11 µg/mL (≈ 0.179 µM)
IC90 [8]: > 16 µg/mL
IC50 [9]: 0.012 µg/mL (≈ 0.0196 µM)
IC90 [9]: 0.77 µg/mL (≈ 1.25 µM)
IC50 [10]: 0.004 µg/mL (≈ 0.00652 µM)
IC90 [10]: 0.049 µg/mL (≈ 0.0798 µM)
IC50 [11]: 0.02 µg/mL (≈ 0.0326 µM)
IC90 [11]: 0.1 µg/mL (≈ 0.163 µM)
IC50 [12]: 0.005 µg/mL (≈ 0.00815 µM)
IC90 [12]: 0.025 µg/mL (≈ 0.0407 µM)
IC50 [13]: 0.026 µg/mL (≈ 0.0424 µM)
IC90 [13]: 16 µg/mL (≈ 26.1 µM)
IC50 [14]: 0.028 µg/mL (≈ 0.0456 µM)
IC90 [14]: > 16 µg/mL
IC50 [15]: 0.014 µg/mL (≈ 0.0228 µM)
IC90 [15]: 15.6 µg/mL (≈ 25.4 µM)
IC50 [16]: 0.058 µg/mL (≈ 0.0945 µM)
IC90 [16]: 16 µg/mL (≈ 26.1 µM)
IC50 [17]: 0.015 µg/mL (≈ 0.0244 µM)
IC90 [17]: > 16 µg/mL
IC50 [18]: 0.015 µg/mL (≈ 0.0244 µM)
IC90 [18]: 0.07 µg/mL (≈ 0.114 µM)
IC50 [19]: 0.044 µg/mL (≈ 0.0717 µM)
IC90 [19]: > 16 µg/mL
IC50 [20]: 0.12 µg/mL (≈ 0.196 µM)
IC90 [20]: > 16 µg/mL

COC(=O)C[C@](O)(CCCC(C)(C)OC(=O)c1cccnc1Cl)C(=O)O[C@@H]1C(OC)=C[C@]23CCCN2CCc2cc4c(cc2[C@H]13)OCO4 [BS-HH-066]
IC50 [1]: 0.006 µg/mL (≈ 0.00876 µM)
IC90 [1]: 0.033 µg/mL (≈ 0.0482 µM)
IC50 [2]: 0.003 µg/mL (≈ 0.00438 µM)
IC90 [2]: 0.01 µg/mL (≈ 0.0146 µM)
IC50 [3]: 0.002 µg/mL (≈ 0.00292 µM)
IC90 [3]: 0.004 µg/mL (≈ 0.00584 µM)
IC50 [4]: 0.005 µg/mL (≈ 0.0073 µM)
IC90 [4]: ≥ 16 µg/mL
IC50 [5]: 0.03 µg/mL (≈ 0.0438 µM)
IC90 [5]: 3.18 µg/mL (≈ 4.64 µM)
IC50 [6]: 0.0007 µg/mL (≈ 0.00102 µM)
IC90 [6]: 0.002 µg/mL (≈ 0.00292 µM)
improvement of anti-Kasumi-1 activity compared with homoharringtonine ([6]; vs HHT): more than 7 fold
IC50 [7]: 0.03 µg/mL (≈ 0.0438 µM)
IC90 [7]: > 16 µg/mL
IC50 [8]: 0.1 µg/mL (≈ 0.146 µM)
IC90 [8]: > 16 µg/mL
IC50 [9]: 0.0032 µg/mL (≈ 0.00467 µM)
IC90 [9]: 0.2 µg/mL (≈ 0.292 µM)
IC50 [10]: 0.0016 µg/mL (≈ 0.00234 µM)
IC90 [10]: 0.023 µg/mL (≈ 0.0336 µM)
IC50 [11]: 0.007 µg/mL (≈ 0.0102 µM)
IC90 [11]: 0.048 µg/mL (≈ 0.0701 µM)
IC50 [12]: 0.003 µg/mL (≈ 0.00438 µM)
IC90 [12]: 0.023 µg/mL (≈ 0.0336 µM)
IC50 [13]: 0.021 µg/mL (≈ 0.0306 µM)
IC90 [13]: 16 µg/mL (≈ 23.4 µM)
IC50 [14]: 0.03 µg/mL (≈ 0.0438 µM)
IC90 [14]: > 16 µg/mL
IC50 [15]: 0.02 µg/mL (≈ 0.0292 µM)
IC90 [15]: 5.63 µg/mL (≈ 8.22 µM)
IC50 [16]: 0.049 µg/mL (≈ 0.0715 µM)
IC90 [16]: 16 µg/mL (≈ 23.4 µM)
IC50 [17]: 0.025 µg/mL (≈ 0.0365 µM)
IC90 [17]: > 16 µg/mL
IC50 [18]: 0.005 µg/mL (≈ 0.0073 µM)
IC90 [18]: 0.052 µg/mL (≈ 0.0759 µM)
IC50 [19]: 0.026 µg/mL (≈ 0.0379 µM)
IC90 [19]: > 16 µg/mL
IC50 [20]: 0.051 µg/mL (≈ 0.0744 µM)
IC90 [20]: > 16 µg/mL
